# Source: publication PMC6022709 (BMC Research Notes, 2018)
# Where two headings read alike, the source gives them in different places.
# Tested on: M. tuberculosis resistant isolates
# Format: cell-based, Mycobacterium tuberculosis
# Conditions: solid medium 7H10 with 10% v/v OADC, 3–4 weeks
SMILES,MIC99 (strain LP-0458686-RM1),MIC99 (strain LP-0458686-RM2),MIC99 (strain LP-0458686-RM3),MIC99 (strain LP-0458690-RM1),MIC99 (strain LP-0458690-RM2),MIC99 (strain LP-0458690-RM3),MIC99 (strain LP-0458690-RM4),MIC99 (strain LP-0458690-RM5),MIC99 (strain LP-0458690-RM6)
CC(C)CC1C(=O)N2NCCCC2C(=O)N2NCCCC2C(=O)N(C)C(Cc2ccccc2)C(=O)N2CCCC2C(=O)NC(C(C)C)C(=O)N1O (stereo not drawn) [Compound 3],3.1 µM,3.1 µM,3.1 µM,,,,,,
"CC(C)CC1C(=O)N2NCCCC2C(=O)N2NCCCC2C(=O)N(C)C(Cc2ccccc2)C(=O)N2CCCC2C(=O)NC(Cc2ccccc2)C(=O)N1O (stereo not drawn) [Compound 1, cyclo[N-(Me)Phe-Pro-Phe-N-(OH)Leu-Piz-Piz]]",,,,13 µM,25 µM,25 µM,25 µM,25 µM,25 µM
